Data as given in patent publication US20230321251A1, “LIPOSOME FORMULATION CONTAINING ANTIBACTERIAL AGENT” (priority 2020, published 2023).
In brackets after ≈: the same amount, converted by molar mass. Several values for one entry are separate records, joined by “and”; a condition that tells them apart may be missing. Equal entries are not always repeated.

Columns and labels:
S. aureus ATCC700787 = assay: In vitro antibacterial activity (MIC), agar plate dilution; format: cell-based, Staphylococcus aureus
Protocol: (§1) A minimum inhibitory concentration was measured as in vitro antibacterial activity. The minimum inhibitory concentration (MIC: μg/ml) was measured according to the standard method of Japanese Society of Chemotherapy, by an agar plate dilution method using 1000 cfu/spot as an inoculum amount and a susceptibility disk medium as a test medium.
(§2) In the tables, a unit of a numerical value of inhibitory activity is μg/ml. In addition, in the tables, S. aureus represents Staphylococcus aureus and E. faecalis represents Gram-positive group D streptococci (enterococci) that are resident in a normal bacterial flora of a human intestinal tract, and can be causative bacteria of endocarditis and the like after surgery.

S. aureus VRS1 = assay: as above; format: cell-based, Staphylococcus aureus; conditions: for minimum inhibitory concentration (MIC): S. aureus VRS1, 1000 cfu/spot
Protocol: as §1, §2

[1] = Tissue distribution test (plasma, liver, kidney, lung); conditions: ICR mice; for Kidney Concentration / Liver Concentration / Lung Concentration / Plasma Concentration / Kidney Kp / Liver Kp / Lung Kp: iv 5 mg/kg; for concentration at 0.5 h / concentration at 2 h / concentration at 24 h / Kp at 0.5 h / Kp at 2 h / Kp at 24 h: ICR, mouse, in vivo, iv, 5 mg/kg
Protocol: (3) Tissue Distribution of Active Ingredient after Administration of Liposome Formulation
(Tissue Distribution Test)
The compound of the present invention was intravenously administered at a dose of 5 mg/kg to ICR mice. […] Then, the liver, kidney, and lung were removed, and a 25% homogenate was prepared with distilled water. The obtained blood was centrifuged, and plasma was then obtained. Thereafter, each sample was measured using LC/MS/MS. The concentration value ratio (each tissue/plasma) obtained was used as a tissue Kp value.

[2] = Plasma concentration of active ingredient after intravenous administration (PK parameters)
Protocol: (2) Plasma Concentration of Active Ingredient after Administration of Liposome Formulation
1) Animals used: ICR mice were used.
2) Breeding conditions: The mice were allowed to freely take chow and sterilized tap water.
3) Dose and grouping setting: A predetermined dose was intravenously administered. The intravenous dose was 5 mg/kg (n=3).
4) Formulation of dosing solution: The dosing solution was administered as a 5% glucose solution.
5) Administration method: Administration was performed via the tail vein through a syringe with an injection needle.
6) Evaluation item: Blood was collected over time, and the plasma concentration of the compound of the present invention was measured using LC/MS/MS.
7) Parameter analysis: For the plasma concentration of the compound of the present invention, area under the plasma concentration-time curve (AUC), systemic clearance (CLtot), elimination half-life (t½), and steady state distribution volume (Vdss) of the compound of the present invention were calculated by non-compartmental model analysis.

E. faecium SR7940 = assay: In vitro antibacterial activity (MIC), agar plate dilution; format: cell-based; conditions: for minimum inhibitory concentration (MIC): E. faecium SR7940, 1000 cfu/spot
Protocol: as §1, §2

E. faecium SRM1101 = assay: as above; format: cell-based
Protocol: as §1, §2

E. faecalis SR7914 = assay: as above; format: cell-based; conditions: for minimum inhibitory concentration (MIC): E. faecalis SR7914, 1000 cfu/spot
Protocol: as §1, §2

E. faecalis SR1004 = assay: as above; format: cell-based; conditions: for minimum inhibitory concentration (MIC): E. faecalis SR1004, 1000 cfu/spot
Protocol: as §1, §2

S. aureus ATCC25923 = assay: as above; format: cell-based, Staphylococcus aureus
Protocol: as §1, §2

[3] = ICR mice, intravenous 5 mg/kg, plasma
[4] = ICR, mouse, in vivo, iv, 5 mg/kg

With `CN[C@H](CC(C)C)C(=O)N[C@H]1C(=O)N[C@@H](CC(N)=O)C(=O)N[C@H]2C(=O)N[C@H]3C(=O)N[C@H](C(=O)N[C@H](C(=O)O)c4cc(O)cc(O)c4-c4cc3ccc4O)[C@H](O[C@H]3C[C@](C)(N)[C@@H](O)[C@H](C)O3)c3ccc(c(Cl)c3)Oc3cc2cc(c3O[C@@H]2O[C@H](CO)[C@@H](O)[C@H](O)[C@H]2O[C@H]2C[C@](C)(NCc3ccc(-c4ccc(Cl)cc4)cc3)[C@@H](O)[C@H](C)O2)Oc2ccc(cc2Cl)[C@H]1O` [Oritavancin drug substance, oritavancin] the “minimum inhibitory concentration (MIC)” value (S. aureus ATCC700787; S. aureus ATCC700787, 1000 cfu/spot) was 4 µg/mL and 2 µg/mL, the “minimum inhibitory concentration (MIC)” value (S. aureus VRS1) was 4 µg/mL and 2 µg/mL and the “Kidney Concentration” value ([1]; 0.5 hour after administration) was 10300 ± 1090 ng/mL. For the same compound, the “Liver Concentration” value ([1]; 0.5 hour after administration) was 14800 ± 1230 ng/mL, the “Lung Concentration” value ([1]; 0.5 hour after administration) was 15100 ± 563 ng/mL and the “Plasma Concentration” value ([1]; 0.5 hour after administration) was 34400 ± 4550 ng/mL. For the same compound, the “Kidney Concentration” value ([1]; 2 hours after administration) was 8720 ± 538 ng/mL, the “Liver Concentration” value ([1]; 2 hours after administration) was 24900 ± 1400 ng/mL and the “Lung Concentration” value ([1]; 2 hours after administration) was 10100 ± 1010 ng/mL. The “Plasma Concentration” value ([1]; 2 hours after administration) was 14900 ± 1710 ng/mL, the “Kidney Concentration” value ([1]; 24 hours after administration) was 4090 ± 462 ng/mL and the “Liver Concentration” value ([1]; 24 hours after administration) was 38500 ± 2780 ng/mL. For the same compound, the “Lung Concentration” value ([1]; 24 hours after administration) was 3790 ± 388 ng/mL, the “Plasma Concentration” value ([1]; 24 hours after administration) was 63.9 ± 12.0 ng/mL and the “Kidney Kp” value ([1]; kidney/plasma concentration ratio, 0.5 hour) was 0.30 ± 0.04. The “Kidney Kp” value ([1]; kidney/plasma concentration ratio, 2 hours) was 0.59 ± 0.05, the “Kidney Kp” value ([1]; kidney/plasma concentration ratio, 24 hours) was 66.12 ± 17.05 and the “Liver Kp” value ([1]; liver/plasma concentration ratio, 0.5 hour) was 0.44 ± 0.08. For the same compound, the “Liver Kp” value ([1]; liver/plasma concentration ratio, 2 hours) was 1.68 ± 0.10, the “Liver Kp” value ([1]; liver/plasma concentration ratio, 24 hours) was 611.35 ± 72.9 and the “Lung Kp” value ([1]; lung/plasma concentration ratio, 0.5 hour) was 0.44 ± 0.07. The “Lung Kp” value ([1]; lung/plasma concentration ratio, 2 hours) was 0.68 ± 0.09, the “Lung Kp” value ([1]; lung/plasma concentration ratio, 24 hours) was 61.19 ± 15.12 and the CL tot [2, 3] was 0.989 ± 0.049 mL/min/kg. The T1/2 [2, 3] was 2.2 ± 1.3 h, the “minimum inhibitory concentration (MIC)” value (E. faecium SR7940) was 2 µg/mL (≈ 1.12 µM) and the “minimum inhibitory concentration (MIC)” value (E. faecium SRM1101; E. faecium SRM1101, 1000 cfu/spot) was 2 µg/mL and 4 µg/mL. The “minimum inhibitory concentration (MIC)” value (E. faecalis SR7914) was 2 µg/mL and 1 µg/mL and the “minimum inhibitory concentration (MIC)” value (E. faecalis SR1004) was 2 µg/mL and 1 µg/mL.
With `CCCCCCCCCCNCCN[C@@]1(C)C[C@H](O[C@H]2[C@H](Oc3c4cc5cc3Oc3ccc(cc3Cl)[C@@H](O)[C@@H]3NC(=O)[C@H](NC(=O)[C@@H]5NC(=O)[C@H](CC(N)=O)NC(=O)C(NC(=O)[C@@H](CC(C)C)NC)[C@H](O)c5ccc(c(Cl)c5)O4)c4ccc(O)c(c4)-c4c(cc(O)c(CNCP(=O)(O)O)c4O)[C@@H](C(=O)O)NC3=O)O[C@H](CO)[C@@H](O)[C@@H]2O)O[C@@H](C)[C@H]1O` (some centres unmarked) [Telavancin drug substance, telavancin] the “minimum inhibitory concentration (MIC)” value (S. aureus ATCC25923; S. aureus ATCC25923, 1000 cfu/spot) was 0.25 µg/mL (≈ 0.142 µM), the MIC (S. aureus ATCC25923; Staphylococcus aureus, ATCC25923, read-out: minimum inhibitory concentration (MIC), S. aureus ATCC25923, 1000 cfu/spot) was 0.5 µg/mL (≈ 0.285 µM) and the MIC (S. aureus ATCC700787; Staphylococcus aureus, ATCC700787, read-out: minimum inhibitory concentration (MIC)) was 1 µg/mL (≈ 0.57 µM). For the same compound, the “minimum inhibitory concentration (MIC)” value (S. aureus VRS1) was 2 µg/mL (≈ 1.14 µM), the MIC (S. aureus VRS1; Staphylococcus aureus, VRS1, read-out: minimum inhibitory concentration (MIC), S. aureus VRS1, 1000 cfu/spot) was 4 µg/mL (≈ 2.28 µM) and the concentration at 0.5 h ([1]; Kidney Concentration, 0.5 hour after administration) was 19000 ± 4110 ng/mL. The concentration at 2 h ([1]; Kidney Concentration, 2 hours after administration) was 12700 ± 2470 ng/mL, the concentration at 24 h ([1]; Kidney Concentration, 24 hours after administration) was 5930 ± 1600 ng/mL and the Kp at 0.5 h ([1]; Kidney Kp, kidney/plasma concentration ratio, 0.5 hour) was 1.05 ± 0.23. It also gave a Kp at 2 h ([1]; Kidney Kp, kidney/plasma concentration ratio, 2 hours) of 1.64 ± 0.12, a Kp at 24 h ([1]; Kidney Kp, kidney/plasma concentration ratio, 24 hours) of 49.9 and a concentration at 0.5 h ([1]; Liver Concentration, 0.5 hour after administration) of 3780 ± 201 ng/mL. For the same compound, the concentration at 2 h ([1]; Liver Concentration, 2 hours after administration) was 4050 ± 256 ng/mL, the concentration at 24 h ([1]; Liver Concentration, 24 hours after administration) was 2340 ± 465 ng/mL and the Kp at 0.5 h ([1]; Liver Kp, liver/plasma concentration ratio, 0.5 hour) was 0.21 ± 0.01. The Kp at 2 h ([1]; Liver Kp, liver/plasma concentration ratio, 2 hours) was 0.53 ± 0.05, the Kp at 24 h ([1]; Liver Kp, liver/plasma concentration ratio, 24 hours) was 17.2 and the concentration at 0.5 h ([1]; Lung Concentration, 0.5 hour after administration) was 5860 ± 208 ng/mL. For the same compound, the concentration at 2 h ([1]; Lung Concentration, 2 hours after administration) was 2820 ± 162 ng/mL, the concentration at 24 h ([1]; Lung Concentration, 24 hours after administration) was 736 ± 158 ng/mL and the Kp at 0.5 h ([1]; Lung Kp, lung/plasma concentration ratio, 0.5 hour) was 0.32 ± 0.03. For the same compound, the Kp at 2 h ([1]; Lung Kp, lung/plasma concentration ratio, 2 hours) was 0.37 ± 0.04, the Kp at 24 h ([1]; Lung Kp, lung/plasma concentration ratio, 24 hours) was 5.75 and the concentration at 0.5 h ([1]; Plasma Concentration, 0.5 hour after administration) was 18200 ± 627 ng/mL. The concentration at 2 h ([1]; Plasma Concentration, 2 hours after administration) was 7700 ± 977 ng/mL, the concentration at 24 h ([1]; Plasma Concentration, 24 hours after administration) was 51.9 ± 89.9 ng/mL and the AUC(0-inf) [2, 4] was 57200 ± 12800 ng·h/mL. The clearance [2, 4] was 1.52 ± 0.32 mL/min/kg, the half-life [2, 4] was 2.7 ± 2.7 h and the “minimum inhibitory concentration (MIC)” value (E. faecium SR7940) was 2 µg/mL (≈ 1.14 µM). For the same compound, the MIC (E. faecium SR7940; Enterococcus faecium, SR7940, read-out: minimum inhibitory concentration (MIC), E. faecium SR7940, 1000 cfu/spot) was 4 µg/mL (≈ 2.28 µM), the MIC (E. faecium SRM1101; Enterococcus faecium, SRM1101, read-out: minimum inhibitory concentration (MIC)) was 4 µg/mL (≈ 2.28 µM) and the “minimum inhibitory concentration (MIC)” value (E. faecalis SR7914) was 2 µg/mL (≈ 1.14 µM). The MIC (E. faecalis SR7914; Enterococcus faecalis, SR7914, read-out: minimum inhibitory concentration (MIC), E. faecalis SR7914, 1000 cfu/spot) was 4 µg/mL (≈ 2.28 µM), the “minimum inhibitory concentration (MIC)” value (E. faecalis SR1004) was 0.5 µg/mL (≈ 0.285 µM) and the MIC (E. faecalis SR1004; Enterococcus faecalis, SR1004, read-out: minimum inhibitory concentration (MIC), E. faecalis SR1004, 1000 cfu/spot) was 1 µg/mL (≈ 0.57 µM).
